Measured values as given in patent publication US20100267561A1, “HERBICIDAL PYRIDAZINONE DERIVATIVES” (priority 2007, published 2010).
Where two headings read alike, the source gives them in different places.

Tests used:
Format in all cases: in vivo
wild oat (Avena fatua) = test: Test B pre-/postemergence plant response; conditions: for pest or weed control at 31 g/ha / pest or weed control at 62 g/ha: Avena fatua, read-out: Plant response rating, Oat, Wild; for pest or weed control at 31 g/ha: 31 g ai/ha; for pest or weed control at 62 g/ha: 62 g ai/ha, 100 complete control
In short: (§1)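 Preemergence and postemergence (plants 2-18 cm, 1- to 4-leaf stage) applications used test chemicals in a non-phytotoxic solvent with surfactant. Plants were held in a greenhouse 13 to 15 days, then rated visually against controls on a 0-100 scale (0 no effect, 100 complete control).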

[1] = system: pigweed (Amaranthus retroflexus); test: Test B pre-/postemergence plant response; conditions: for pest or weed control at 31 g/ha / pest or weed control at 62 g/ha: Amaranthus retroflexus, read-out: Plant response rating, Pigweed; for pest or weed control at 31 g/ha: 31 g ai/ha; for pest or weed control at 62 g/ha: 62 g ai/ha, 100 complete control
In short: as §1

[2] = system: green foxtail (Setaria viridis); test: Test B pre-/postemergence plant response; conditions: for pest or weed control at 31 g/ha: 31 g ai/ha; for pest or weed control at 62 g/ha: 62 g ai/ha, 100 complete control
In short: as §1

[3] = system: woolly cupgrass (Eriochloa villosa); test: Test B pre-/postemergence plant response; conditions: for pest or weed control at 31 g/ha: 31 g ai/ha; for pest or weed control at 62 g/ha: 62 g ai/ha, 100 complete control
In short: as §1

[4] = system: eastern black (E.B.) nightshade (Solanum ptycanthum); test: Test B pre-/postemergence plant response; conditions: Preemergence; for Nightshade, E. B. plant response rating: scale 0 to 100
In short: as §1

[5] = system: giant foxtail (Setaria faberii); test: Test B pre-/postemergence plant response; conditions: for pest or weed control at 31 g/ha: 31 g ai/ha; for pest or weed control at 62 g/ha: 62 g ai/ha, 100 complete control
In short: as §1

[6] = system: large crabgrass (Digitaria sanguinalis); test: Test B pre-/postemergence plant response; conditions: for pest or weed control at 31 g/ha: 31 g ai/ha; for pest or weed control at 62 g/ha: 62 g ai/ha, 100 complete control
In short: as §1

corn (Zea mays) = test: Test B pre-/postemergence plant response; conditions: for Corn plant response rating (crop injury, 0 = no effect, 100 = complete kill) at 31 g/ha: 31 g ai/ha; for Corn plant response rating (crop injury, 0 = no effect, 100 = complete kill) at 62 g/ha: 62 g ai/ha, 100 complete control
In short: as §1

[7] = system: Russian thistle (Salsola iberica); test: Test B pre-/postemergence plant response; conditions: Preemergence; for Russian Thistle plant response rating: scale 0 to 100
In short: as §1

[8] = system: downy bromegrass (Bromus tectorum); test: Test B pre-/postemergence plant response; conditions: for pest or weed control at 31 g/ha: 31 g ai/ha; for pest or weed control at 62 g/ha: 62 g ai/ha, 100 complete control
In short: as §1

rice (Oryza sativa) = test: Test B flooded paddy test plant response; conditions: Oryza sativa, Flood (flooded paddy test), scale 0 to 100, 0 no effect, 100 complete control, read-out: Plant response rating, Rice
In short: (§2)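 Compounds were added directly to paddy water over 2-leaf-stage plants in pots flooded 3 cm above soil, water depth maintained. Visual injury scored against controls after 13 to 15 days in greenhouse, 0 (none) to 100 (complete control); dash indicates no result.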

[9] = system: umbrella sedge (Cyperus difformis); test: Test B flooded paddy test plant response; conditions: Cyperus difformis, Flood (flooded paddy test), scale 0 to 100, 0 no effect, 100 complete control, read-out: Plant response rating, Sedge, Umbrella
In short: as §2

[10] = system: barnyardgrass (Echinochloa crus-galli); test: Test B flooded paddy test plant response; conditions: Echinochloa crus-galli, Flood (flooded paddy test), scale 0 to 100, 0 no effect, 100 complete control, read-out: Plant response rating, Barnyardgrass
In short: as §2

[11] = system: ducksalad (Heteranthera limosa); test: Test B flooded paddy test plant response; conditions: Heteranthera limosa, Flood (flooded paddy test), scale 0 to 100, 0 no effect, 100 complete control, read-out: Plant response rating, Ducksalad
In short: as §2

[12] = 8 g ai/ha, postemergence, 0-100 scale
[13] = 16 g ai/ha, postemergence, 0-100 scale
[14] = post-emergence, Postemergence, scale 0 to 100
[15] = post-emergence, Postemergence, scale 0 to 100, 0 no effect
[16] = pre-emergence, Preemergence, scale 0 to 100 (0 no effect, 100 complete control)
[17] = pre-emergence, Preemergence, 0 to 100 scale, 0 no effect
[18] = Preemergence, 8 g ai/ha, scale 0 to 100
[19] = Preemergence, 16 g ai/ha, scale 0 to 100

Cc1nn(C)c(=O)c(-n2nc(-c3ccc(C(F)(F)F)cc3)cc2C)c1O [Compound 75, 5-hydroxy-2,6-dimethyl-4-[5-methyl-3-[4-(trifluoromethyl)phenyl]-1H-pyrazol-1-yl]-3(2H)-pyridazinone]
Oat, Wild plant response rating (wild oat (Avena fatua); [12]): 0
Oat, Wild plant response rating (wild oat (Avena fatua); [13]): 30
pest or weed control at 31 g/ha (wild oat (Avena fatua); [14]): 85%
pest or weed control at 62 g/ha (wild oat (Avena fatua); [15]): 98%
pest or weed control at 31 g/ha (wild oat (Avena fatua); [16]): 40%
pest or weed control at 62 g/ha (wild oat (Avena fatua); [17]): 50%
Oat, Wild plant response rating (wild oat (Avena fatua); [18]): 0
Oat, Wild plant response rating (wild oat (Avena fatua); [19]): 0
Pigweed plant response rating [1, 12]: 0
Pigweed plant response rating [1, 13]: 0
pest or weed control at 31 g/ha [1, 14]: 0%
pest or weed control at 62 g/ha [1, 15]: 0%
pest or weed control at 31 g/ha [1, 16]: 0%
pest or weed control at 62 g/ha [1, 17]: 0%
Pigweed plant response rating [1, 18]: 0
Pigweed plant response rating [1, 19]: 0
Foxtail, Green plant response rating [2, 12]: 0
Foxtail, Green plant response rating [2, 18]: 0
Foxtail, Green plant response rating [2, 19]: 30
pest or weed control at 16 g/ha ([2]; Setaria viridis, post-emergence, Postemergence, 16 g ai/ha, scale 0 to 100, read-out: Plant response rating, Foxtail, Green): 40%
pest or weed control at 31 g/ha ([2]; Setaria viridis, post-emergence, Postemergence, scale 0 to 100, read-out: Plant response rating, Foxtail, Green): 80%
pest or weed control at 62 g/ha ([2]; Setaria viridis, post-emergence, Postemergence, scale 0 to 100, 0 no effect, read-out: Plant response rating, Foxtail, Green): 95%
pest or weed control at 31 g/ha ([2]; Setaria viridis, pre-emergence, Preemergence, scale 0 to 100 (0 no effect, 100 complete control), read-out: Plant response rating, Foxtail, Green): 50%
pest or weed control at 62 g/ha ([2]; Setaria viridis, pre-emergence, Preemergence, 0 to 100 scale, 0 no effect, read-out: Plant response rating, Foxtail, Green): 80%
Cupgrass, Woolly plant response rating [3, 12]: 20
pest or weed control at 16 g/ha ([3]; Eriochloa villosa, post-emergence, Postemergence, 16 g ai/ha, scale 0 to 100, read-out: Plant response rating, Cupgrass, Woolly): 65%
pest or weed control at 31 g/ha ([3]; Eriochloa villosa, post-emergence, Postemergence, scale 0 to 100, read-out: Plant response rating, Cupgrass, Woolly): 65%
pest or weed control at 62 g/ha ([3]; Eriochloa villosa, post-emergence, Postemergence, scale 0 to 100, 0 no effect, read-out: Plant response rating, Cupgrass, Woolly): 75%
pest or weed control at 31 g/ha ([3]; Eriochloa villosa, pre-emergence, Preemergence, scale 0 to 100 (0 no effect, 100 complete control), read-out: Plant response rating, Cupgrass, Woolly): 65%
pest or weed control at 62 g/ha ([3]; Eriochloa villosa, pre-emergence, Preemergence, 0 to 100 scale, 0 no effect, read-out: Plant response rating, Cupgrass, Woolly): 75%
Cupgrass, Woolly plant response rating [3, 18]: 0
Cupgrass, Woolly plant response rating [3, 19]: 0
Nightshade, E. B. plant response rating ([4]; 8 g ai/ha): 0
Nightshade, E. B. plant response rating ([4]; 16 g ai/ha): 0
pest or weed control at 31 g/ha ([4]; Solanum, pre-emergence, 31 g ai/ha, scale 0 to 100 (0 no effect, 100 complete control), read-out: Plant response rating, Nightshade, E. B.): 0%
pest or weed control at 62 g/ha ([4]; Solanum, pre-emergence, 62 g ai/ha, 0 to 100 scale, 0 no effect, 100 complete control, read-out: Plant response rating, Nightshade, E. B.): 0%
Foxtail, Giant plant response rating [5, 12]: 50
Foxtail, Giant plant response rating [5, 18]: 0
Foxtail, Giant plant response rating [5, 19]: 0
pest or weed control at 16 g/ha ([5]; Setaria faberi, post-emergence, Postemergence, 16 g ai/ha, scale 0 to 100, read-out: Plant response rating, Foxtail, Giant): 70%
pest or weed control at 31 g/ha ([5]; Setaria faberi, post-emergence, Postemergence, scale 0 to 100, read-out: Plant response rating, Foxtail, Giant): 80%
pest or weed control at 62 g/ha ([5]; Setaria faberi, post-emergence, Postemergence, scale 0 to 100, 0 no effect, read-out: Plant response rating, Foxtail, Giant): 85%
pest or weed control at 31 g/ha ([5]; Setaria faberi, pre-emergence, Preemergence, scale 0 to 100 (0 no effect, 100 complete control), read-out: Plant response rating, Foxtail, Giant): 50%
pest or weed control at 62 g/ha ([5]; Setaria faberi, pre-emergence, Preemergence, 0 to 100 scale, 0 no effect, read-out: Plant response rating, Foxtail, Giant): 95%
Crabgrass, Large plant response rating [6, 12]: 0
pest or weed control at 16 g/ha ([6]; Digitaria sanguinalis, post-emergence, Postemergence, 16 g ai/ha, scale 0 to 100, read-out: Plant response rating, Crabgrass, Large): 0%
pest or weed control at 31 g/ha ([6]; Digitaria sanguinalis, post-emergence, Postemergence, scale 0 to 100, read-out: Plant response rating, Crabgrass, Large): 30%
pest or weed control at 62 g/ha ([6]; Digitaria sanguinalis, post-emergence, Postemergence, scale 0 to 100, 0 no effect, read-out: Plant response rating, Crabgrass, Large): 60%
pest or weed control at 31 g/ha ([6]; Digitaria sanguinalis, pre-emergence, Preemergence, scale 0 to 100 (0 no effect, 100 complete control), read-out: Plant response rating, Crabgrass, Large): 25%
pest or weed control at 62 g/ha ([6]; Digitaria sanguinalis, pre-emergence, Preemergence, 0 to 100 scale, 0 no effect, read-out: Plant response rating, Crabgrass, Large): 55%
Crabgrass, Large plant response rating [6, 18]: 0
Crabgrass, Large plant response rating [6, 19]: 0
Corn plant response rating (corn (Zea mays); [12]): 0
Corn plant response rating (corn (Zea mays); [18]): 0
Corn plant response rating (corn (Zea mays); [19]): 0
Corn plant response rating (crop injury, 0 = no effect, 100 = complete kill) at 16 g/ha (corn (Zea mays); Zea mays, post-emergence, Postemergence, 16 g ai/ha, scale 0 to 100): 50%
Corn plant response rating (crop injury, 0 = no effect, 100 = complete kill) at 31 g/ha (corn (Zea mays); Zea mays, post-emergence, Postemergence, scale 0 to 100): 90%
Corn plant response rating (crop injury, 0 = no effect, 100 = complete kill) at 62 g/ha (corn (Zea mays); Zea mays, post-emergence, Postemergence, scale 0 to 100, 0 no effect): 100%
Corn plant response rating (crop injury, 0 = no effect, 100 = complete kill) at 31 g/ha (corn (Zea mays); Zea mays, pre-emergence, Preemergence, scale 0 to 100 (0 no effect, 100 complete control)): 75%
Corn plant response rating (crop injury, 0 = no effect, 100 = complete kill) at 62 g/ha (corn (Zea mays); Zea mays, pre-emergence, Preemergence, 0 to 100 scale, 0 no effect): 95%
Plant response rating, Russian Thistle ([7]; 31 g ai/ha, scale 0 to 100 (0 no effect, 100 complete control)): 0
Plant response rating, Russian Thistle ([7]; 62 g ai/ha, 0 to 100 scale, 0 no effect, 100 complete control): 0
Russian Thistle plant response rating ([7]; 8 g ai/ha): 0
Russian Thistle plant response rating ([7]; 16 g ai/ha): 0
Bromegrass, Downy plant response rating [8, 12]: 0
pest or weed control at 16 g/ha ([8]; Bromus tectorum, post-emergence, Postemergence, 16 g ai/ha, scale 0 to 100, read-out: Plant response rating, Bromegrass, Downy): 10%
pest or weed control at 31 g/ha ([8]; Bromus tectorum, post-emergence, Postemergence, scale 0 to 100, read-out: Plant response rating, Bromegrass, Downy): 30%
pest or weed control at 62 g/ha ([8]; Bromus tectorum, post-emergence, Postemergence, scale 0 to 100, 0 no effect, read-out: Plant response rating, Bromegrass, Downy): 50%
pest or weed control at 31 g/ha ([8]; Bromus tectorum, pre-emergence, Preemergence, scale 0 to 100 (0 no effect, 100 complete control), read-out: Plant response rating, Bromegrass, Downy): 50%
pest or weed control at 62 g/ha ([8]; Bromus tectorum, pre-emergence, Preemergence, 0 to 100 scale, 0 no effect, read-out: Plant response rating, Bromegrass, Downy): 80%
Bromegrass, Downy plant response rating [8, 18]: 0
Bromegrass, Downy plant response rating [8, 19]: 20
plant injury at 62 g/ha (rice (Oryza sativa); 62 g ai/ha): 0%
plant injury at 250 g/ha (rice (Oryza sativa); 250 g ai/ha): 0%
pest or weed control at 62 g/ha ([9]; 62 g ai/ha): 0%
pest or weed control at 250 g/ha ([9]; 250 g ai/ha): 0%
pest or weed control at 62 g/ha ([10]; 62 g ai/ha): 0%
pest or weed control at 250 g/ha ([10]; 250 g ai/ha): 0%
pest or weed control at 62 g/ha ([11]; 62 g ai/ha): 0%
pest or weed control at 250 g/ha ([11]; 250 g ai/ha): 0%
